Here are results for 26 molecules from patent publication US20230365592A1 (Agios Pharmaceuticals, Inc., priority 2022, published 2023).

In this test the target is T1, human PAH with the R408W mutation (Homo sapiens, UniProt P00439, R408W).
T1 construct: expressed in transfected cells
T1 sequence (P00439 1-452 R408W): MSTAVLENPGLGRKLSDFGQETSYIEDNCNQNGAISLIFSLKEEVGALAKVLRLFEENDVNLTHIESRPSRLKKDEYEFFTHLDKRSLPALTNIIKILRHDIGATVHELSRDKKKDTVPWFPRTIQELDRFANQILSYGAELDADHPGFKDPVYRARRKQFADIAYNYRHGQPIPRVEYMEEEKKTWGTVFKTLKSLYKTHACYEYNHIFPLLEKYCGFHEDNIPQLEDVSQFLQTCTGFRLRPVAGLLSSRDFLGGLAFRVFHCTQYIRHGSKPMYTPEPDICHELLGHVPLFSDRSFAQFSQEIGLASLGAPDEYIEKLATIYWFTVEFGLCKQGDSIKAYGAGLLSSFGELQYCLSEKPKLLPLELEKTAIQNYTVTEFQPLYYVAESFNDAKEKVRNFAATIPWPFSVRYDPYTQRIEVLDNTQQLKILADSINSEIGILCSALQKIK
Kind of test: Cell Based Phenylalanine Flux Assay.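 Also: after compound treatment, cells received sepiapterin plus isotope-labelled Phenylalanine for 4 hours, then labelled Tyrosine in the medium was quantified, 10-point 2-fold dilution series run in duplicate.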 Conditions: A375 cells expressing human PAH R408W; 24 hrs compound incubation; 13C-Tyrosine by LC-MS; average where tested multiple times; read-out: AC50.

For orientation: AC50 means the midpoint of the concentration-response curve, whichever way the signal moves.

In the case of `Cc1cccc2cc([C@H]3c4nc[nH]c4CCN3c3nnc(-c4ccc(F)cc4)o3)nn12` [Example 2011, (R)-2-(4-fluorophenyl)-5-(4-(7-methylpyrazolo[1,5-a]pyridin-2-yl)-1,4,6,7-tetrahydro-5H-imidazo[4,5-c]pyridin-5-yl)-1,3,4-oxadiazole], the half-maximal activity concentration (AC50) was more than 5 µM.

On to `FC(F)(F)c1ccc(N2CCc3[nH]cnc3[C@H]2c2cc3c(C(F)(F)F)cccn3n2)nc1` [Example 2013, (S)-4-(4-(trifluoromethyl)pyrazolo[1,5-a]pyridin-2-yl)-5-(5-(trifluoromethyl)pyridin-2-yl)-4,5,6,7-tetrahydro-1H-imidazo[4,5-c]pyridine], for which the concentration at half-maximal activity (AC50) was less than 0.5 µM. Consider `O=C(c1ocnc1C1CC1)N1CCc2[nH]cnc2[C@H]1c1cc2c(C(F)(F)F)cccn2n1` [Example 2014, (S)-(4-cyclopropyloxazol-5-yl)(4-(4-(trifluoromethyl)pyrazolo[1,5-a]pyridin-2-yl)-1,4,6,7-tetrahydro-5H-imidazo[4,5-c]pyridin-5-yl)methanone], for which the AC50 was less than 0.5 µM. Turning to `Cn1ccc(-c2nnc(C(=O)N3CCc4[nH]cnc4[C@H]3c3cc4ccccn4n3)s2)n1` [Example 2016, (S)-(5-(1-methyl-1H-pyrazol-3-yl)-1,3,4-thiadiazol-2-yl)(4-(pyrazolo[1,5-a]pyridin-2-yl)-1,4,6,7-tetrahydro-5H-imidazo[4,5-c]pyridin-5-yl)methanone], the AC50 is less than 0.5 µM. `Cn1ccc(-c2nnc(C(=O)N3CCc4[nH]cnc4[C@@H]3c3cc4ccccn4n3)s2)n1` [Example 2017, (R)-(5-(1-methyl-1H-pyrazol-3-yl)-1,3,4-thiadiazol-2-yl)(4-(pyrazolo[1,5-a]pyridin-2-yl)-1,4,6,7-tetrahydro-5H-imidazo[4,5-c]pyridin-5-yl)methanone]: the half-maximal activity concentration (AC50) is more than 5 µM. `Cn1cc(-c2nnc(C(=O)N3CCc4[nH]cnc4[C@H]3c3cc4c(F)cccn4n3)s2)cn1` [Example 2018, (S)-(4-(4-fluoropyrazolo[1,5-a]pyridin-2-yl)-1,4,6,7-tetrahydro-5H-imidazo[4,5-c]pyridin-5-yl)(5-(1-methyl-1H-pyrazol-4-yl)-1,3,4-thiadiazol-2-yl)methanone]: the AC50 is less than 0.5 µM. On to `Cn1cc(-c2nnc(C(=O)N3CCc4[nH]cnc4[C@@H]3c3cc4c(F)cccn4n3)s2)cn1` [Example 2019, (R)-(4-(4-fluoropyrazolo[1,5-a]pyridin-2-yl)-1,4,6,7-tetrahydro-5H-imidazo[4,5-c]pyridin-5-yl)(5-(1-methyl-1H-pyrazol-4-yl)-1,3,4-thiadiazol-2-yl)methanone], for which the AC50 was more than 5 µM.

On to `Cc1cccn2nc([C@@H]3c4nc[nH]c4CCN3C(=O)c3nc4ccccc4o3)cc12` [Example 2020, (S)-benzo[d]oxazol-2-yl(4-(4-methylpyrazolo[1,5-a]pyridin-2-yl)-1,4,6,7-tetrahydro-5H-imidazo[4,5-c]pyridin-5-yl)methanone], for which the half-maximal activity concentration (AC50) was less than 0.5 µM. To `O=C(c1nc2ccccc2s1)N1CCc2[nH]cnc2[C@H]1c1cc2c(C(F)F)cccn2n1` [Example 2022, (S)-benzo[d]thiazol-2-yl(4-(4-(difluoromethyl)pyrazolo[1,5-a]pyridin-2-yl)-1,4,6,7-tetrahydro-5H-imidazo[4,5-c]pyridin-5-yl)methanone] belongs 0.5 to 1 µM. For `O=C(c1nc2ccccc2s1)N1CCc2[nH]cnc2[C@@H]1c1cc2c(C(F)F)cccn2n1` [Example 2023, (R)-benzo[d]thiazol-2-yl(4-(4-(difluoromethyl)pyrazolo[1,5-a]pyridin-2-yl)-1,4,6,7-tetrahydro-5H-imidazo[4,5-c]pyridin-5-yl)methanone] the value was more than 5 µM. As for `Cc1cccn2nc([C@@H]3c4nc[nH]c4CCN3C(=O)C3CC3)cc12` [Example 2024, (S)-cyclopropyl(4-(4-methylpyrazolo[1,5-a]pyridin-2-yl)-1,4,6,7-tetrahydro-5H-imidazo[4,5-c]pyridin-5-yl)methanone], the AC50 is less than 0.5 µM.

For the molecule `Cc1cccn2nc([C@@H]3c4nc[nH]c4CCN3C(=O)[C@H]3CC3(F)F)cc12` [Example 2027, ((R)-2,2-difluorocyclopropyl)((S)-4-(4-methylpyrazolo[1,5-a]pyridin-2-yl)-1,4,6,7-tetrahydro-5H-imidazo[4,5-c]pyridin-5-yl)methanone], the AC50 lay in the range of 0.5 to 1 µM.

`Cc1cccn2nc([C@@H]3c4nc[nH]c4CCN3C(=O)[C@@H]3CC3(F)F)cc12` [Example 2028, ((S)-2,2-difluorocyclopropyl)((S)-4-(4-methylpyrazolo[1,5-a]pyridin-2-yl)-1,4,6,7-tetrahydro-5H-imidazo[4,5-c]pyridin-5-yl)methanone]: the AC50 is less than 0.5 µM. For `Cc1cccn2nc([C@H]3c4nc[nH]c4CCN3C(=O)[C@@H]3CC3(F)F)cc12` [Example 2029, ((S)-2,2-difluorocyclopropyl)((R)-4-(4-methylpyrazolo[1,5-a]pyridin-2-yl)-1,4,6,7-tetrahydro-5H-imidazo[4,5-c]pyridin-5-yl)methanone] the value was more than 5 µM; for `O=C([C@@H]1CC1(F)F)N1CCc2[nH]cnc2[C@@H]1c1cc2c(F)cccn2n1` [Example 2031, ((S)-2,2-difluorocyclopropyl)((R)-4-(4-fluoropyrazolo[1,5-a]pyridin-2-yl)-1,4,6,7-tetrahydro-5H-imidazo[4,5-c]pyridin-5-yl)methanone], 1 to 5 µM; for `O=C(c1cnc(-c2ccccn2)o1)N1CCc2[nH]cnc2[C@H]1c1cc2c(F)cccn2n1` [Example 2032, (S)-(4-(4-fluoropyrazolo[1,5-a]pyridin-2-yl)-1,4,6,7-tetrahydro-5H-imidazo[4,5-c]pyridin-5-yl)(2-(pyridin-2-yl)oxazol-5-yl)methanone], less than 0.5 µM. To `O=C(c1cnc(-c2ccccn2)o1)N1CCc2[nH]cnc2[C@@H]1c1cc2c(F)cccn2n1` [Example 2033, (R)-(4-(4-fluoropyrazolo[1,5-a]pyridin-2-yl)-1,4,6,7-tetrahydro-5H-imidazo[4,5-c]pyridin-5-yl)(2-(pyridin-2-yl)oxazol-5-yl)methanone] belongs more than 5 µM; to `O=C(c1cnc(-c2ccccn2)o1)N1CCc2[nH]cnc2[C@H]1c1cc2c(C(F)F)cccn2n1` [Example 2034, (S)-(4-(4-(difluoromethyl)pyrazolo[1,5-a]pyridin-2-yl)-1,4,6,7-tetrahydro-5H-imidazo[4,5-c]pyridin-5-yl)(2-(pyridin-2-yl)oxazol-5-yl)methanone], 0.5 to 1 µM. To `O=C(c1cnc(-c2ccccn2)o1)N1CCc2[nH]cnc2[C@@H]1c1cc2c(C(F)(F)F)cccn2n1` [Example 2037, (R)-(2-(pyridin-2-yl)oxazol-5-yl)(4-(4-(trifluoromethyl)pyrazolo[1,5-a]pyridin-2-yl)-1,4,6,7-tetrahydro-5H-imidazo[4,5-c]pyridin-5-yl)methanone] belongs more than 5 µM; to `O=C(c1ocnc1C1CC1)N1CCc2[nH]cnc2[C@@H]1c1cc2c(Cl)cccn2n1` [Example 2041, (R)-(4-(4-chloropyrazolo[1,5-a]pyridin-2-yl)-1,4,6,7-tetrahydro-5H-imidazo[4,5-c]pyridin-5-yl)(4-cyclopropyloxazol-5-yl)methanone], 1 to 5 µM. As to `O=C(c1ocnc1C1CC1)N1CCc2[nH]cnc2[C@H]1c1cc2cccc(Cl)n2n1` [Example 2042, (S)-(4-(7-chloropyrazolo[1,5-a]pyridin-2-yl)-1,4,6,7-tetrahydro-5H-imidazo[4,5-c]pyridin-5-yl)(4-cyclopropyloxazol-5-yl)methanone], the AC50 was in the range of 0.5 to 1 µM. For the molecule `O=C(c1ocnc1C1CC1)N1CCc2[nH]cnc2[C@@H]1c1cc2cccc(Cl)n2n1` [Example 2043, (R)-(4-(7-chloropyrazolo[1,5-a]pyridin-2-yl)-1,4,6,7-tetrahydro-5H-imidazo[4,5-c]pyridin-5-yl)(4-cyclopropyloxazol-5-yl)methanone], the AC50 was 1 to 5 µM.

For `Cn1cc(-c2nnc(C(=O)N3CCc4[nH]cnc4[C@@H]3c3cc4ccccn4n3)s2)cn1` [Example 2044, (R)-(5-(1-methyl-1H-pyrazol-4-yl)-1,3,4-thiadiazol-2-yl)(4-(pyrazolo[1,5-a]pyridin-2-yl)-1,4,6,7-tetrahydro-5H-imidazo[4,5-c]pyridin-5-yl)methanone], the AC50 is more than 5 µM. To `Cn1cc(-c2nnc(C(=O)N3CCc4[nH]cnc4[C@H]3c3cc4ccccn4n3)s2)cn1` [Example 2045, (S)-(5-(1-methyl-1H-pyrazol-4-yl)-1,3,4-thiadiazol-2-yl)(4-(pyrazolo[1,5-a]pyridin-2-yl)-1,4,6,7-tetrahydro-5H-imidazo[4,5-c]pyridin-5-yl)methanone] belongs 0.5 to 1 µM; to `Cc1cccn2nc([C@H]3c4nc[nH]c4CCN3C(=O)c3nnc(-c4cnn(C)c4)s3)cc12` [Example 2046, (R)-(5-(1-methyl-1H-pyrazol-4-yl)-1,3,4-thiadiazol-2-yl)(4-(4-methylpyrazolo[1,5-a]pyridin-2-yl)-1,4,6,7-tetrahydro-5H-imidazo[4,5-c]pyridin-5-yl)methanone], more than 5 µM; to `Cc1cccn2nc([C@@H]3c4nc[nH]c4CCN3C(=O)c3nnc(-c4cnn(C)c4)s3)cc12` [Example 2047, (S)-(5-(1-methyl-1H-pyrazol-4-yl)-1,3,4-thiadiazol-2-yl)(4-(4-methylpyrazolo[1,5-a]pyridin-2-yl)-1,4,6,7-tetrahydro-5H-imidazo[4,5-c]pyridin-5-yl)methanone], 0.5 to 1 µM.
